Assay results published in article PMC6934871, “High resolution structural and functional analysis of a hemopexin motif protein from Dolichos” (Scientific Reports, 2019).

Target: DC25
Test: SPR (Biacore T200, DC25 immobilized on CM5, […] Langmuir fit); also inhibits peroxidase activity of purified DC25
Format: binding, Lablab purpureus

**Q.** How did the Kd turn out when `O=S(=O)(O)c1ccc(-c2c3nc(c(-c4ccc(S(=O)(=O)O)cc4)c4ccc([nH]4)c(-c4ccc(S(=O)(=O)O)cc4)c4nc(c(-c5ccc(S(=O)(=O)O)cc5)c5ccc2[nH]5)C=C4)C=C3)cc1` [TPPS4] was run?
**A.** 1210 nM
